“Also recorded” adds a separate entry of the source.
System: SARS-CoV-2 B.1.617.2 and BA.1 variants
Type: cell-based
Settings: B.1.617.2 (Delta) and BA.1 (Omicron)

CSc1ccc(-n2cnc3ccc(-c4nnc(CCc5cccc(C#N)c5)o4)cc32)cc1 [Compound P-0717632]
effect on SARS-CoV-2 variants: reduced intracellular viral titres; also recorded: inhibited
